Results from patent US20120165223A1 (priority 2006, published 2012).

System: crypt cells of the colon of HFA mice
Conditions: DNA chip, colonic crypt cells, 200 mg/kg orally four days
Procedure: The collected colon is opened and intestinal content is cleaned with a sterilized saline solution and put in a cryomold in the longitudinal direction to be embedded as an OCT compound and then it is maintained in a freezer at −80° C. The frozen tissue is cut to have the thickness of 8 μm using a cryotome, put on a glass slide (HistoGene LCM slide, Arcturus) and cleaned using a staing (HistoGene LCM frozen section staing kit, Arcturus) and then a hematoxylin stain is performed and then dehydrated. The stained colonic tissue slide of the dyed mice is put on a laser captured microdissector (PixCell II, Arcturus) and crypt cells are isolated from the colon by a laser.
The amplified aRNA (24 μl) of 10 μg is mixed with random hexamer (5 mg/Ml) of 2 μl to be 24 μl which is heated for 10 minutes at 70° C. The first strand master mix liquid of 26 μl containing Cy3- or Cy5-dUTP (1 mM, respectively) is added to aRNA and reacted for two hours at 37° C. […] After the cDNA is deactivated for three minutes at 98° C., a control target of 25 μl with 2× hybridization buffer of 105 μl (Agilent In situ Hybridization kit) to be instilled on a mouse DNA microarray chip (TwinChip Mouse 7.4K cDNA array, Digital Genomics, Seoul, Korea) and hybridized for 17 hours at 60° C. […] Each fluorescence intensity is obtained by performing a global normalization and measuring the ratio of expressing Cy3- and Cy5- fluorescence with respect to one gene.

Compound	Ang gene expression in comparison with HFA (FIG. 4a)	Casp14 gene expression in comparison with HFA (FIG. 3A)	Eif2ak3 gene expression in comparison with HFA (FIG. 3A)	I16 gene expression in comparison with HFA (FIG. 3A)	Mpp1 gene expression in comparison with HFA (FIG. 4a)	Mt1 gene expression in comparison with HFA (FIG. 4a)	S1c26a1 gene expression in comparison with HFA (FIG. 4a)	Saa3 gene expression in comparison with HFA (FIG. 4a)	Spn2a gene expression in comparison with HFA (FIG. 3A)	Tegt gene expression in comparison with HFA (FIG. 3A)
CN(C)[C@@H]1C(=O)C(C(N)=O)=C(O)[C@@]2(O)C(=O)C3=C(O)c4c(O)cccc4[C@@](C)(O)[C@H]3C[C@@H]12 [TC, Tetracycline]	nearly two or four times	increase the expression of the genes	increase the expression of the genes	increase the expression of the genes	prevent genes from expressing themselves more than twice	nearly two or four times	prevent genes from expressing themselves more than twice	prevent genes from expressing themselves more than twice	prevent genes from expressing themselves more than twice	prevent genes from expressing themselves more than twice
O=C(O)c1cn(C2CC2)c2cc(N3CCNCC3)c(F)cc2c1=O [Cip, Ciprofloxacin]	nearly two or four times	increase the expression of the genes	increase the expression of the genes	increase the expression of the genes	prevent genes from expressing themselves more than twice	nearly two or four times	prevent genes from expressing themselves more than twice	prevent genes from expressing themselves more than twice	prevent genes from expressing themselves more than twice	prevent genes from expressing themselves more than twice
